Experimental data reported in ChEMBL document CHEMBL3039007, “Structure-based identification of OATP1B1/3 inhibitors” (Mol Pharmacol, 2013).

What was measured:
[1] = biological target: T1, Solute carrier organic anion transporter family member 1B1 (Homo sapiens, UniProt Q9Y6L6); conditions: chinese hamster, cho, 10 µM
T1 sequence (Q9Y6L6 whole entry): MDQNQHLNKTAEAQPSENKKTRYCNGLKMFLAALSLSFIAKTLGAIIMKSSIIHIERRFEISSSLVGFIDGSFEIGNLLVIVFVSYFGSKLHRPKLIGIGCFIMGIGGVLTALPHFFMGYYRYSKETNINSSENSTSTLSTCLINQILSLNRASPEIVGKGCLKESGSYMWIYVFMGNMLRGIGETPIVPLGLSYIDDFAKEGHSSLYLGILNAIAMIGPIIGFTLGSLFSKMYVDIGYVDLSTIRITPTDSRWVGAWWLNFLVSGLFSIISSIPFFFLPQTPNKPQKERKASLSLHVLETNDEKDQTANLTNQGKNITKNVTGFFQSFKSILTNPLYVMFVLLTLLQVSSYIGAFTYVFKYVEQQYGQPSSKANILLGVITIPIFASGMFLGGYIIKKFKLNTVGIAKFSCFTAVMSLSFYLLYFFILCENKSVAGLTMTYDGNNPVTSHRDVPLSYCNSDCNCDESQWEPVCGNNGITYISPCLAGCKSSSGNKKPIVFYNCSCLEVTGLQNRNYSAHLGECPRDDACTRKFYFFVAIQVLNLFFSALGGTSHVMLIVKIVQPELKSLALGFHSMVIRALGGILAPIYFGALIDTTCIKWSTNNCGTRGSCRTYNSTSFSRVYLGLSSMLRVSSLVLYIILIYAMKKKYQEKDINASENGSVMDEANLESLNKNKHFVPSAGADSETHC

[2] = biological target: T2, Solute carrier organic anion transporter family member 1B3 (Homo sapiens, UniProt Q9NPD5); conditions: chinese hamster, cho, 10 µM
T2 sequence (Q9NPD5 whole entry): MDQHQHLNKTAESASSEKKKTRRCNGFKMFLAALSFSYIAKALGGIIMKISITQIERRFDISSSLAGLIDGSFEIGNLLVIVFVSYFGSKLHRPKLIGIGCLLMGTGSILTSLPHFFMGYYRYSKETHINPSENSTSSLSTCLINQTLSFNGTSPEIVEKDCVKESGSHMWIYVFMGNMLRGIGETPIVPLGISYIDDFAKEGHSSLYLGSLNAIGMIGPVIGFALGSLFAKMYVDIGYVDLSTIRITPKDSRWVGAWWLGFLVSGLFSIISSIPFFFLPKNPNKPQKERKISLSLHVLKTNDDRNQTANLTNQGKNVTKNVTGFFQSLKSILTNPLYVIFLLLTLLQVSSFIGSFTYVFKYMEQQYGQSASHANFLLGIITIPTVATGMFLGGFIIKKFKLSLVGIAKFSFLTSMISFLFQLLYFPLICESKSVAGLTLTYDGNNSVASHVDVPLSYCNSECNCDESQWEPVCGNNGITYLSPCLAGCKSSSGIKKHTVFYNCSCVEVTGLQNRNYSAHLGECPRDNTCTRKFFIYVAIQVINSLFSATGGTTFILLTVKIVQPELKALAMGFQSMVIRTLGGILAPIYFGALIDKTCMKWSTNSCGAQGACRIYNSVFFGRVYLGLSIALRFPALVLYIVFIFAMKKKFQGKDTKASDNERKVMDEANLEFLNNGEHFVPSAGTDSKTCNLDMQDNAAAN

CC(C)(Sc1cc(C(C)(C)C)c(O)c(C(C)(C)C)c1)Sc1cc(C(C)(C)C)c(O)c(C(C)(C)C)c1 [PROBUCOL]
residual activity [1]: 102.2% | residual activity [2]: 90.56%

CCN(CC)CCNC(=O)c1ccc(N)cc1.Cl [PROCAINAMIDE HYDROCHLORIDE]
residual activity [1]: 81.68% | residual activity [2]: 104.4%

CCN(CC)CCOC(=O)c1ccc(N)cc1.Cl [PROCAINE HYDROCHLORIDE]
residual activity [1]: 104.1% | residual activity [2]: 104.2%

CC(=O)[C@H]1CC[C@H]2[C@@H]3CCC4=CC(=O)CC[C@]4(C)[C@H]3CC[C@]12C [PROGESTERONE]
residual activity [1]: 52.43% | residual activity [2]: 92%

CCCN(CCC)C(=O)C(CCC(=O)O)NC(=O)c1ccccc1 (configuration not stated) [PROGLUMIDE]
residual activity [1]: 105% | residual activity [2]: 104.8%

CC(C)NC(=N)NC(=N)Nc1ccc(Cl)cc1.Cl [PROGUANIL HYDROCHLORIDE]
residual activity [1]: 77.71% | residual activity [2]: 114.8%

CN(C)CCCN1c2ccccc2Sc2ccccc21.Cl [PROMAZINE HYDROCHLORIDE]
residual activity [1]: 82.72% | residual activity [2]: 81.19%

CC(CN1c2ccccc2Sc2ccccc21)N(C)C.Cl (configuration not stated) [PROMETHAZINE HYDROCHLORIDE]
residual activity [1]: 69.15% | residual activity [2]: 86.93%

COc1nc(NC(C)C)nc(NC(C)C)n1 [PROMETON]
residual activity [1]: 114.4% | residual activity [2]: 102.5%

CSc1nc(NC(C)C)nc(NC(C)C)n1 [PROMETRYN]
residual activity [1]: 175.4% | residual activity [2]: 86.3%

CC(C)N(C(=O)CCl)c1ccccc1 [PROPACHLOR]
residual activity [1]: 110.8% | residual activity [2]: 110.5%

CCC(=O)Nc1ccc(Cl)c(Cl)c1 [PROPANIL]
residual activity [1]: 92.07% | residual activity [2]: 115.2%

CC(C)[N+](C)(CCOC(=O)C1c2ccccc2Oc2ccccc21)C(C)C.[Br-] [PROPANTHELINE BROMIDE]
residual activity [1]: 110.4% | residual activity [2]: 110.4%

C#CCOS(=O)OC1CCCCC1Oc1ccc(C(C)(C)C)cc1 (configuration not stated) [PROPARGITE]
residual activity [1]: 93.31% | residual activity [2]: 106%

CC(C)Nc1nc(Cl)nc(NC(C)C)n1 [PROPAZINE]
residual activity [1]: 110.4% | residual activity [2]: 91.55%

CCCn1cnc2c1c(=O)n(CCCCC(C)=O)c(=O)n2C [PROPENTOFYLLINE]
residual activity [1]: 126.3% | residual activity [2]: 110.4%

CNC(=O)Oc1ccccc1OC(C)C [PROPOXUR]
residual activity [1]: 104% | residual activity [2]: 109.6%

CC(C)NCC(O)COc1cccc2ccccc12.Cl (configuration not stated) [PROPRANOLOL HYDROCHLORIDE]
residual activity [1]: 59.88% | residual activity [2]: 95.98%

CCCc1cc(=O)[nH]c(=S)[nH]1 [PROPYLTHIOURACIL]
residual activity [1]: 79.91% | residual activity [2]: 90.71%

C=CC1=C(C)c2cc3[nH]c(cc4nc(cc5[nH]c(cc1n2)c(C)c5CCC(=O)O)C(CCC(=O)O)=C4C)c(C)c3C=C [PROTOPORPHYRIN]
residual activity [1]: 49.56% | residual activity [2]: 94.63%

CC[C@@H](C)C(=O)O[C@H]1[C@H](O)[C@H]2[C@@H](CN3C[C@@H](C)CC[C@H]3[C@@]2(C)O)[C@@H]2C[C@]34O[C@]5(O)[C@@H](OC(=O)[C@@](C)(O)CC)CC[C@@]3(C)[C@@H]5[C@@H](OC(C)=O)[C@@H](OC(C)=O)[C@H]4[C@@]21O [PROTOVERATRINE A]
residual activity [1]: 93.58% | residual activity [2]: 77.86%

CC[C@@H](C)C(=O)O[C@H]1[C@H](O)[C@H]2[C@@H](CN3C[C@@H](C)CC[C@H]3[C@@]2(C)O)[C@@H]2C[C@]34O[C@]5(O)[C@@H](OC(=O)[C@](C)(O)[C@@H](C)O)CC[C@@]3(C)[C@@H]5[C@@H](OC(C)=O)[C@@H](OC(C)=O)[C@H]4[C@@]21O [PROTOVERATRINE B]
residual activity [1]: 114.4% | residual activity [2]: 125.5%

CN[C@@H](C)[C@@H](O)c1ccccc1.Cl [PSEUDOEPHEDRINE HYDROCHLORIDE]
residual activity [1]: 86.1% | residual activity [2]: 102.7%

CC1=CCc2c(cc3oc(C)cc(=O)c3c2O)OC1 [PTAEROXYLIN]
residual activity [1]: 104.1% | residual activity [2]: 109.4%

Nc1nc2ncc(C(=O)O)nc2c(=O)[nH]1 [PTERIN-6-CARBOXYLIC ACID]
residual activity [1]: 102.1% | residual activity [2]: 99.97%

C/C=C(/C)C(=O)O[C@@H]1c2c(ccc3ccc(=O)oc23)OC(C)(C)[C@@H]1OC(C)=O [PTERYXIN]
residual activity [1]: 84.8% | residual activity [2]: 114.3%

COc1ccc(C[C@H](N)C(=O)N[C@H]2[C@@H](O)[C@H](n3cnc4c(N(C)C)ncnc43)O[C@@H]2CO)cc1.Cl.Cl [PUROMYCIN HYDROCHLORIDE]
residual activity [1]: 95.86% | residual activity [2]: 116.6%

O=C1c2ccccc2C(=O)c2c(O)c(O)cc(O)c21 [PURPURIN]
residual activity [1]: 100.1% | residual activity [2]: 98.68%

O=c1c(O)cccc2cc(O)c(O)c(O)c12 [PURPUROGALLIN]
residual activity [1]: 65.05% | residual activity [2]: 82.24%

Cl.Cl.NCCCCN [PUTRESCINE DIHYDROCHLORIDE]
residual activity [1]: 110.3% | residual activity [2]: 106.7%

CN1CCCN=C1/C=C/c1cccs1.O=C(O)c1cc2ccccc2c(Cc2c(O)c(C(=O)O)cc3ccccc23)c1O [PYRANTEL PAMOATE]
residual activity [1]: 31.41% | residual activity [2]: 34.84%

NC(=O)c1cnccn1 [PYRAZINAMIDE]
residual activity [1]: 79.24% | residual activity [2]: 116.6%

CN(C)C(=O)Oc1ccc[n+](C)c1.[Br-] [PYRIDOSTIGMINE BROMIDE]
residual activity [1]: 96.49% | residual activity [2]: 112%

COc1ccc(CN(CCN(C)C)c2ccccn2)cc1.O=C(O)/C=C\C(=O)O [PYRILAMINE MALEATE]
residual activity [1]: 68.75% | residual activity [2]: 101.4%

CCc1nc(N)nc(N)c1-c1ccc(Cl)cc1 [PYRIMETHAMINE]
residual activity [1]: 72.59% | residual activity [2]: 107.4%

[O-][n+]1ccccc1[S][Zn][S]c1cccc[n+]1[O-] [PYRITHIONE ZINC]
residual activity [1]: 92.52% | residual activity [2]: 94.54%

CCC1(CC)C(=O)C=CNC1=O [PYRITHYLDIONE]
residual activity [1]: 106.5% | residual activity [2]: 101.3%

CC[C@@]1(O)C[C@H](O[C@H]2C[C@H](N(C)C)[C@H](O)[C@H](C)O2)c2c(cc3c(c2O)C(=O)c2c(O)ccc(O)c2C3=O)[C@H]1C(=O)OC [PYRROMYCIN]
residual activity [1]: 90.45% | residual activity [2]: 81.89%

Cc1cc(/C=C/c2ccc3cc(N(C)C)ccc3[n+]2C)c(C)n1-c1ccccc1.Cc1cc(/C=C/c2ccc3cc(N(C)C)ccc3[n+]2C)c(C)n1-c1ccccc1.O=C([O-])c1cc2ccccc2c(Cc2c(O)c(C(=O)[O-])cc3ccccc23)c1O [PYRVINIUM PAMOATE]
residual activity [1]: 42.61% | residual activity [2]: 32.66%

CO[C@H]1[C@H](O)[C@@H](O)[C@H](O)[C@H](O)[C@H]1O [QUEBRACHITOL]
residual activity [1]: 101.4% | residual activity [2]: 106.9%

O=c1c(O)c(-c2ccc(O)c(O)c2)oc2cc(O)cc(O)c12 [QUERCETIN]
residual activity [1]: 47.09% | residual activity [2]: 122.6%

C[C@@H]1O[C@@H](Oc2c(-c3ccc(O)c(O)c3)oc3cc(O)cc(O)c3c2=O)[C@H](O)[C@H](O)[C@H]1O [QUERCITRIN]
residual activity [1]: 107.2% | residual activity [2]: 114.6%

CCN(CC)CCCC(C)Nc1c2ccc(Cl)cc2nc2ccc(OC)cc12.Cl.Cl.O.O (configuration not stated) [QUINACRINE HYDROCHLORIDE]
residual activity [1]: 83.49% | residual activity [2]: 95.69%

O=C1c2ccc(O)c(O)c2C(=O)c2c(O)ccc(O)c21 [QUINALIZARIN]
residual activity [1]: 57.07% | residual activity [2]: 75.87%

CCOC(=O)[C@H](CCc1ccccc1)N[C@@H](C)C(=O)N1Cc2ccccc2C[C@H]1C(=O)O.Cl [QUINAPRIL HYDROCHLORIDE]
residual activity [1]: 109.5% | residual activity [2]: 98.34%

O=C(O)[C@]1(O)C[C@@H](O)[C@@H](O)[C@H](O)C1 [QUINIC ACID]
residual activity [1]: 95.08% | residual activity [2]: 98.01%
